Reference: patent US7645759B2, “Non-peptide bradykinin antagonists and pharmaceutical compositions therefrom” (Istituto Luso Farmaco D'Italia S.p.A., priority 2004, dated 2010)
Structures can show the parent of a compound that is named as a salt. Where two headings read alike, the source gives them in different places.

Assays:
[1] = molecular target: T1, B2 human receptor (Homo sapiens, UniProt P30411); experiment: cell-based
T1 construct: expressed in transfected cells; host or cells: CHO cells
T1 sequence (P30411 1-391): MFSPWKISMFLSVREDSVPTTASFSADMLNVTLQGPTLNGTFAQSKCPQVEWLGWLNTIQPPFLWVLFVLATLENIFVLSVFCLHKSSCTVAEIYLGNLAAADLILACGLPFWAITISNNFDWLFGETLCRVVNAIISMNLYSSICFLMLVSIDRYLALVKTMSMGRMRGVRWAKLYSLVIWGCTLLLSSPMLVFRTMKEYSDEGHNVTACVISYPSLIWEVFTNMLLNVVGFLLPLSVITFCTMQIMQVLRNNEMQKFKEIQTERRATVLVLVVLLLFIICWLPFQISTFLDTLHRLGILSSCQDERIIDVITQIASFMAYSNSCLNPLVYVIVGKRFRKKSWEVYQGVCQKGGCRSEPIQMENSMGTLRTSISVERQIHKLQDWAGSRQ

[2] = tested on: BK-induced bronchospasm; experiment: Inhibition of BK-induced bronchospasm in the guinea pig; assay type: in vivo; conditions: intratracheal dose which inhibited by 80% bronchial constriction for at least 210 min; for ED80: Cavia porcellus, inhaled or nasal, 3.5 h, read-out: it Dose
Protocol: The in vivo activity of the compounds of the present invention was evaluated as effectiveness in inhibiting BK-induced bronchospasm in the guinea pig (Tramontana, et al., J. Pharmacol. Exp. Therap. 296:1051-1057 (2001)), measuring the it dose (it=intratracheal administration) (in nmols/kg) which inhibited by 80% bronchial constriction for at least 210 min.

[3] = molecular target: T1, B2 human receptor; experiment: Binding to the human B2 receptor expressed in CHO cells
[4] = antagonistic activity, bradykinin-induced inositol production, CHO cells transfected with B2 human receptor, read-out: pA2 (converted)
[5] = human B2 receptor expressed in CHO cells, read-out: pKi (converted)
[6] = antagonistic activity, bradykinin-induced inositol production, CHO cells transfected with B2 human receptor
[7] = human B2 receptor expressed in CHO cells

Structure (SMILES) | Kb [1] [nM] | ED80 [2] [µmol/kg] | Ki [3] [nM] | Kb [1, 4] [nM] | Ki [3, 5] [nM] | pA2 [1, 6] | it Dose [2] [nmols/kg] | pKi [3, 7]
Cc1ccc2cccc(OCc3c(Cl)ccc(S(=O)(=O)NC4(C(=O)N5CCN(C(=O)C(N)CCCCN(C)C)CC5)CCCC4)c3Cl)c2n1 (stereo not shown) [WO03103671 ex 57] | 5.01 | 0.3 | 1.58 | – | – | – | – | –
Cc1cc(C)c2cccc(OCc3c(Cl)ccc(S(=O)(=O)NC4(C(=O)N5CCN(C(=O)C(CCCC[N+](C)(C)C)[N+](C)(C)C)CC5)CCCC4)c3Cl)c2n1 (stereo not shown) [WO03103671 ex 88] | 6.31 | – | 0.2 | – | – | – | – | –
Cc1cc(C)c2cccc(OCc3c(Cl)ccc(S(=O)(=O)NC4(C(=O)N5CCN(C(=O)C(N)CCCCN)CC5)CCCC4)c3Cl)c2n1 (stereo not shown) [WO03103671 ex 63] | – | 0.3 | – | 1.26 | 0.794 | – | – | –
Cc1ccc2cccc(OCc3c(Cl)ccc(S(=O)(=O)NC4(C(=O)N5CCN(C(=O)C(N)CCCNC(=N)N)CC5)CCCC4)c3Cl)c2n1 (stereo not shown) [WO03103671 ex 55] | 3.98 | 0.3 | 2 | – | – | – | – | –
Cc1cc(C)c2cccc(OCc3c(Cl)ccc(S(=O)(=O)NC4(C(=O)N5CCN(C(=O)CCCC[N+](C)(C)C)CC5)CCOCC4)c3Cl)c2n1.O=C([O-])C(F)(F)F [Example 3, [5-(4-{4-[2,4-Dichloro-3-(2,4-dimethyl-quinolin-8-yloxymethyl)-benzene-sulfonylamino]tetrahydropyran-4-carbonyl}piperazin-1-yl)-5-oxo-pentyl]-trimethyl-ammonium trifluoroacetate.] | – | – | – | – | – | 9.5 | 100 | 10.1
Cc1cc(C)c2cccc(OCc3c(Cl)ccc(S(=O)(=O)NC4(C(=O)N5CCN(C(=O)[C@@H](N)CCC[N+](C)(C)C)CC5)CCOCC4)c3Cl)c2n1.Cl.Cl.[Cl-] [Example 1, (4-(S)-amino-5-(4-{4-[2,4-dichloro-3-(2,4-dimethyl-quinolin-8-yloxymethyl)-benzenesulfonylamino]tetrahydropyran-4-carbonyl}piperazin-1-yl)-5-oxo-pentyl]trimethyl-ammonium chloride, dihydrochloride] | – | 0.03 | – | – | – | 10.3 | – | 10.3
Cc1cc(C)c2cccc(OCc3c(Cl)ccc(S(=O)(=O)NC4(C(=O)N5CCN(C(=O)[C@@H](N)CCC[N+](C)(C)C)CC5)CCCC4)c3Cl)c2n1 [Example 4, [4-(S)-Amino-5-(4-{1-[2,4-dichloro-3-(2,4-dimethyl-quinolin-8-yloxymethyl)-benzenesulfonylamino]cyclopentanecarbonyl}piperazin-1-yl)-5-oxo-pentyl]-trimethyl-ammonium chloride, dihydrochloride.] | – | 0.1 | – | 0.398 | 0.0794 | – | – | –
Cc1ccc2cccc(OCc3c(Cl)ccc(S(=O)(=O)NC4(C(=O)N5CCN(C(=O)[C@@H](N)CCC[N+](C)(C)C)CC5)CCOCC4)c3Cl)c2n1 [Example 2, (4-(S)-Amino-5-(4-(4-(2,4-dichloro-3-(2-methyl-quinolin-8-yloxymethyl)-benzenesulfonylamino)tetrahydropyran-4-carbonyl)-piperazin-1-yl-)5-oxo-pentyl)-trimethylammonium chloride, hydrochloride] | – | 0.1 | – | 0.2 | 0.0631 | – | – | –
Cc1cc(C)c2cccc(OCc3c(Cl)ccc(S(=O)(=O)NC4(C(=O)N5CCN(C(=O)C(N)CCCCN(C)C)CC5)CCCC4)c3Cl)c2n1 (stereo not shown) [WO03103671 ex 59] | – | 0.3 | – | 1 | 1.58 | – | – | –
CCN=C(NCC)NCCCC(N)C(=O)N1CCN(C(=O)C2(NS(=O)(=O)c3ccc(Cl)c(COc4cccc5c(C)cc(C)nc45)c3Cl)CCCC2)CC1 (stereo not shown) [WO03103671 ex 44] | 1 | 0.3 | – | – | – | – | – | –
